Reference: PubChem BioAssay AID248 (DTP/NCI, 2004)
Toxic doses and inconclusive results are not listed.

Tested on: L1210 leukemia ip in BDF1 mice, survival T/C
Assay: NCI In Vivo Anticancer Drug Screen. Data for tumor model L1210 Leukemia (intraperitoneal) in B6D2F1 (BDF1) mice
Conditions: endpoint: mean survival time, higher = longer survival
Summary of the method: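 Tumor cells were implanted, animals were treated, and survival was followed. The result divides the treated measurement by the vehicle-control measurement.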

[1] = dose: 100.0 mg/kg/injection, schedule: Q01DX009 (ip), vehicle: saline with Tween-80
[2] = dose: 200.0 mg/kg/injection, schedule: Q01DX009 (ip), vehicle: saline with Tween-80
[3] = dose: 400.0 mg/kg/injection, schedule: Q01DX009 (ip), vehicle: saline with Tween-80
[4] = dose: 100.0 mg/kg/injection, schedule: Q04DX003 (ip), vehicle: other
[5] = dose: 200.0 mg/kg/injection, schedule: Q04DX003 (ip), vehicle: other
[6] = dose: 100.0 mg/kg/injection, schedule: Q01DX001 (ip), vehicle: saline
[7] = dose: 200.0 mg/kg/injection, schedule: Q01DX001 (ip), vehicle: saline
[8] = dose: 400.0 mg/kg/injection, schedule: Q01DX001 (ip), vehicle: saline
[9] = dose: 50.0 mg/kg/injection, schedule: Q01DX009 (ip), vehicle: saline
[10] = dose: 100.0 mg/kg/injection, schedule: Q01DX009 (ip), vehicle: saline
[11] = dose: 200.0 mg/kg/injection, schedule: Q01DX009 (ip), vehicle: saline

CC(C)C1=CC23CCC4C(C)(C(=O)O)CCCC4(C)C2CC1C1(Cl)C(Cl)=C(Cl)C(Cl)(Cl)C31Cl (stereo unspecified)
T/C (dose: 75.0 mg/kg/injection, schedule: Q01DX001 (ip), vehicle: other): 89 % of control | T/C (dose: 150.0 mg/kg/injection, schedule: Q01DX001 (ip), vehicle: other): 89 % of control

CCCCCCC(O)/C=C/c1ccc(Cl)cc1 (stereo unspecified)
T/C [1]: 94 % of control | T/C [2]: 91 % of control

CCOC(=O)CCc1c(COC(C)=O)[nH]c(C(=O)OCC)c1C
T/C (dose: 50.0 mg/kg/injection, schedule: Q01DX001 (ip), vehicle: Klucel (hydroxypropylcellulose) (HPC)): 100 % of control | T/C (dose: 100.0 mg/kg/injection, schedule: Q01DX001 (ip), vehicle: Klucel (hydroxypropylcellulose) (HPC)): 92 % of control | T/C (dose: 200.0 mg/kg/injection, schedule: Q01DX001 (ip), vehicle: Klucel (hydroxypropylcellulose) (HPC)): 90 % of control

COc1cc2c(c(OC)c1OC)-c1ccc(OC)c(=O)cc1[C@@H](NC(=O)CF)CC2
T/C (dose: 0.04 mg/kg/injection, schedule: Q01DX009 (ip), vehicle: saline): 113 % of control | T/C (dose: 0.06 mg/kg/injection, schedule: Q04DX002 (ip), vehicle: saline with Tween-80): 101 % of control | T/C (dose: 0.09 mg/kg/injection, schedule: Q01DX001 (ip), vehicle: saline with Tween-80): 116 % of control | T/C (dose: 0.09 mg/kg/injection, schedule: Q01DX009 (ip), vehicle: saline with Tween-80): 122 % of control | T/C (dose: 0.09 mg/kg/injection, schedule: Q01DX009 (ip), vehicle: saline): 118 % of control | T/C (dose: 0.09 mg/kg/injection, schedule: Q04DX003 (ip), vehicle: saline with Tween-80): 108 % of control | T/C (dose: 0.12 mg/kg/injection, schedule: Q04DX002 (ip), vehicle: saline with Tween-80): 104 % of control | T/C (dose: 0.18 mg/kg/injection, schedule: Q01DX001 (ip), vehicle: saline with Tween-80): 119 % of control | T/C (dose: 0.18 mg/kg/injection, schedule: Q04DX003 (ip), vehicle: saline with Tween-80): 113 % of control | T/C (dose: 0.25 mg/kg/injection, schedule: Q04DX002 (ip), vehicle: saline with Tween-80): 117 % of control | T/C (dose: 0.37 mg/kg/injection, schedule: Q01DX001 (ip), vehicle: saline with Tween-80): 114 % of control | T/C (dose: 0.37 mg/kg/injection, schedule: Q01DX009 (ip), vehicle: saline with Tween-80): 100 % of control | T/C (dose: 0.37 mg/kg/injection, schedule: Q04DX003 (ip), vehicle: saline with Tween-80): 118 % of control | T/C (dose: 0.5 mg/kg/injection, schedule: Q04DX002 (ip), vehicle: saline with Tween-80): 121 % of control | T/C (dose: 0.75 mg/kg/injection, schedule: Q01DX001 (ip), vehicle: saline with Tween-80): 121 % of control | T/C (dose: 0.75 mg/kg/injection, schedule: Q04DX003 (ip), vehicle: saline with Tween-80): 116 % of control | T/C (dose: 1.5 mg/kg/injection, schedule: Q04DX002 (ip), vehicle: saline with Tween-80): 113 % of control | T/C (dose: 2.0 micrograms/kg/injection, schedule: Q01DX009 (ip), vehicle: saline with Tween-80): 97 % of control | T/C (dose: 5.0 micrograms/kg/injection, schedule: Q01DX009 (ip), vehicle: saline with Tween-80): 105 % of control | T/C (dose: 10.0 micrograms/kg/injection, schedule: Q01DX009 (ip), vehicle: saline with Tween-80): 89 % of control

CCCCCCCCCCCCCCCCS(=O)(=O)CCO
T/C [1]: 98 % of control | T/C [2]: 93 % of control | T/C [3]: 92 % of control

O=C(/C=C/c1ccccc1Cl)NCC(O)CO (stereo unspecified)
T/C [4]: 108 % of control | T/C [5]: 109 % of control | T/C (dose: 400.0 mg/kg/injection, schedule: Q04DX003 (ip), vehicle: other): 109 % of control

CCCCOCN(COCCCC)C(C)(C)C
T/C [6]: 93 % of control | T/C [7]: 98 % of control | T/C [8]: 117 % of control

CCCCCCCCCCCCC(CC(=O)O)C(=O)N(C)CC(O)C(O)C(O)C(O)CO (stereo unspecified)
T/C [9]: 106 % of control | T/C [10]: 100 % of control | T/C [11]: 110 % of control

COC(=O)C(=O)CC(=O)c1ccc(Cl)cc1
T/C (dose: 100.0 mg/kg/injection, schedule: Q04DX002 (ip), vehicle: Klucel (hydroxypropylcellulose) (HPC)): 100 % of control | T/C (dose: 200.0 mg/kg/injection, schedule: Q04DX002 (ip), vehicle: Klucel (hydroxypropylcellulose) (HPC)): 106 % of control | T/C (dose: 400.0 mg/kg/injection, schedule: Q04DX002 (ip), vehicle: Klucel (hydroxypropylcellulose) (HPC)): 95 % of control

CCOC(=O)CC(C)(C)NCc1ccccc1
T/C (dose: 100.0 mg/kg/injection, schedule: Q04DX003 (ip), vehicle: Klucel (hydroxypropylcellulose) (HPC)): 96 % of control

O=C(NO)c1ccccn1
T/C (dose: 90.0 mg/kg/injection, schedule: Q01DX015 (ip), vehicle: water): 97 % of control | T/C (dose: 130.0 mg/kg/injection, schedule: Q01DX015 (ip), vehicle: water): 101 % of control | T/C (dose: 133.0 mg/kg/injection, schedule: Q01DX015 (ip), vehicle: water): 97 % of control | T/C (dose: 200.0 mg/kg/injection, schedule: Q01DX015 (ip), vehicle: water): 110 % of control

O=[N+]([O-])c1ccc(OCc2ccccc2)c([N+](=O)[O-])c1
T/C [1]: 90 % of control | T/C (dose: 100.0 mg/kg/injection, schedule: Q04DX003 (ip), vehicle: saline with Tween-80): 90 % of control | T/C [2]: 87 % of control | T/C (dose: 200.0 mg/kg/injection, schedule: Q04DX003 (ip), vehicle: saline with Tween-80): 90 % of control | T/C [3]: 87 % of control | T/C (dose: 400.0 mg/kg/injection, schedule: Q04DX003 (ip), vehicle: saline with Tween-80): 89 % of control

CNC(=O)N(C(C)C)C1CCCCC1
T/C [4]: 102 % of control | T/C [5]: 96 % of control

C#CCO
T/C (dose: 12.0 mg/kg/injection, schedule: Q01DX009 (ip), vehicle: saline): 107 % of control | T/C (dose: 25.0 mg/kg/injection, schedule: Q01DX009 (ip), vehicle: saline): 110 % of control | T/C [9]: 94 % of control

CC(C)(C)C(Br)C(=O)Nc1ccccc1 (stereo unspecified)
T/C [6]: 104 % of control | T/C [7]: 102 % of control | T/C [8]: 102 % of control

CCN(CC)C(C)COC(=O)c1cc(=O)n(C)c2ccccc12 (stereo unspecified)
T/C [9]: 101 % of control | T/C [10]: 98 % of control | T/C (dose: 100.0 mg/kg/injection, schedule: Q04DX003 (ip), vehicle: saline): 95 % of control | T/C [11]: 89 % of control | T/C (dose: 200.0 mg/kg/injection, schedule: Q04DX003 (ip), vehicle: saline): 97 % of control

Clc1ncnc2c1ncn2C1CCCCO1 (stereo unspecified)
T/C (dose: 31.0 mg/kg/injection, schedule: Q01DX Z (ip), vehicle: other): 101 % of control | T/C (dose: 62.0 mg/kg/injection, schedule: Q01DX Z (ip), vehicle: other): 103 % of control | T/C [6]: 91 % of control | T/C (dose: 100.0 mg/kg/injection, schedule: Q01DX009 (ip), vehicle: saline sonified): 110 % of control | T/C (dose: 175.0 mg/kg/injection, schedule: Q01DX015 (ip), vehicle: saline): 113 % of control | T/C [7]: 98 % of control | T/C (dose: 200.0 mg/kg/injection, schedule: Q01DX009 (ip), vehicle: saline sonified): 118 % of control | T/C (dose: 265.0 mg/kg/injection, schedule: Q01DX015 (ip), vehicle: saline): 123 % of control | T/C [8]: 102 % of control | T/C (dose: 400.0 mg/kg/injection, schedule: Q01DX009 (ip), vehicle: saline sonified): 150 % of control | T/C (dose: 400.0 mg/kg/injection, schedule: Q01DX015 (ip), vehicle: saline): 123 % of control

COc1cc(CC(=O)O)c([N+](=O)[O-])cc1OC
T/C (dose: 100.0 mg/kg/injection, schedule: Q01DX001 (ip), vehicle: carboxymethylcellulose (CMC)): 97 % of control | T/C (dose: 100.0 mg/kg/injection, schedule: Q01DX009 (ip), vehicle: Klucel (hydroxypropylcellulose) (HPC)): 114 % of control | T/C (dose: 200.0 mg/kg/injection, schedule: Q01DX001 (ip), vehicle: carboxymethylcellulose (CMC)): 110 % of control | T/C (dose: 200.0 mg/kg/injection, schedule: Q01DX009 (ip), vehicle: Klucel (hydroxypropylcellulose) (HPC)): 103 % of control | T/C (dose: 400.0 mg/kg/injection, schedule: Q01DX001 (ip), vehicle: carboxymethylcellulose (CMC)): 110 % of control | T/C (dose: 400.0 mg/kg/injection, schedule: Q01DX009 (ip), vehicle: Klucel (hydroxypropylcellulose) (HPC)): 101 % of control

CC(C)(C)c1ccc(SCN(CSc2ccc(C(C)(C)C)cc2)Cc2ccccc2)cc1
T/C (dose: 100.0 mg/kg/injection, schedule: Q01DX001 (ip), vehicle: other): 105 % of control | T/C (dose: 200.0 mg/kg/injection, schedule: Q01DX001 (ip), vehicle: other): 100 % of control | T/C (dose: 400.0 mg/kg/injection, schedule: Q01DX001 (ip), vehicle: other): 94 % of control
